Results as given in ChEMBL document CHEMBL1201862, “PubChem BioAssay data set” (2004).
One block for each compound: values may come before it. Activity calls are given as the source filed them.

Key:
[1] = molecular target: T1, Tyrosine-protein phosphatase non-receptor type 22 (Homo sapiens, UniProt Q9Y2R2); assay: SAR LYP1 Fluorescent Assay using OMFP substrate for In Vitro dose response studies - Set 2. [Related pubchem assays (depositor defined):AID1779, AID1784, AID2140, AID449726, AID488869]; format: functional
T1 sequence (Q9Y2R2 whole entry): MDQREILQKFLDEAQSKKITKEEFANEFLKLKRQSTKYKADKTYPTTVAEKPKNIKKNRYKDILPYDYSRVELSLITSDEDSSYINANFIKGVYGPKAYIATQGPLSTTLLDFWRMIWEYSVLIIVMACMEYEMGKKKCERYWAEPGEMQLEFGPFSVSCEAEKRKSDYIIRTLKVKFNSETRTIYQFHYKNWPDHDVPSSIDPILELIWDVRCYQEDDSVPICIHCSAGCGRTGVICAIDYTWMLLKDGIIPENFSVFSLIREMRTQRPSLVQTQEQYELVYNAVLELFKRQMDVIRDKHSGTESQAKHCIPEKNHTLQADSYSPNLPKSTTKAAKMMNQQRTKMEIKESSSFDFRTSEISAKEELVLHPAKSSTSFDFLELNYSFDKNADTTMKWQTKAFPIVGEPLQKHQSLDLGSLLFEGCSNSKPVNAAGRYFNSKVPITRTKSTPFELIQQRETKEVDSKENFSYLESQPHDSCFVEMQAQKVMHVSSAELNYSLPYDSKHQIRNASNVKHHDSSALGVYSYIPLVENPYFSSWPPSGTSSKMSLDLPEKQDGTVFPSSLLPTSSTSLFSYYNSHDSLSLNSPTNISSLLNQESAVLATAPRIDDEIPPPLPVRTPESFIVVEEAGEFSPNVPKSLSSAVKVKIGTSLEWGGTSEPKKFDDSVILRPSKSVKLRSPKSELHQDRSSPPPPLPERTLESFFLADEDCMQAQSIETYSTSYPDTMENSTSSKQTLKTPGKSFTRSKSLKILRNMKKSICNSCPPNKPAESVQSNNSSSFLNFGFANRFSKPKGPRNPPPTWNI

[2] = molecular target: T1, Tyrosine-protein phosphatase non-receptor type 22; assay: SAR LYP1 Fluorescent Assay using pCAP substrate for In Vitro dose response studies - Set 2. [Related pubchem assays (depositor defined):AID1779, AID1784, AID2135, AID449727]; format: functional
[3] = molecular target: Tyrosine-protein phosphatase non-receptor type 12 (Homo sapiens, UniProt Q05209); assay: SAR Selectivity Analysis of small molecule inhibitors of PEST using pCAP in a fluorescence assay. [Related pubchem assays (depositor defined):AID1779, AID1784, AID2135]; format: functional
Tyrosine-protein phosphatase non-receptor type 12, sequence (Q05209 whole entry): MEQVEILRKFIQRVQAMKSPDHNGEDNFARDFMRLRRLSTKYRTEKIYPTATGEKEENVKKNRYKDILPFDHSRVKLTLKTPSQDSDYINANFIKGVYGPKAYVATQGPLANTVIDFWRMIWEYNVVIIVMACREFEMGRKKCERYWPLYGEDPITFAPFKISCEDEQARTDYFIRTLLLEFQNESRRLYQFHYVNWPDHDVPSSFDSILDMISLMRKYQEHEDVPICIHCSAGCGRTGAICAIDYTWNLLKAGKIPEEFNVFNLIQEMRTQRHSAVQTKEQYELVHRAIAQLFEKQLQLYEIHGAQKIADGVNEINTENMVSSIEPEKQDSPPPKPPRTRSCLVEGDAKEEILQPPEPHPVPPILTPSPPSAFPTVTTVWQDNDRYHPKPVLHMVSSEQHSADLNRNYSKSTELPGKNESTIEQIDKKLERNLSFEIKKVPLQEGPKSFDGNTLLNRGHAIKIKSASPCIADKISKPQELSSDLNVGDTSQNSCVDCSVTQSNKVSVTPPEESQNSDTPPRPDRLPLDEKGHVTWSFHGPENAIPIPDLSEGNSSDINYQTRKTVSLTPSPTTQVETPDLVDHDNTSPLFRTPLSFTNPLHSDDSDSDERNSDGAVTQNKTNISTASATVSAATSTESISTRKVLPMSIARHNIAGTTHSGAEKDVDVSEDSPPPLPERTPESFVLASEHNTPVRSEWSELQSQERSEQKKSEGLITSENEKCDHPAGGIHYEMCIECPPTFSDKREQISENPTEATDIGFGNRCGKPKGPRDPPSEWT

[4] = molecular target: T1, Tyrosine-protein phosphatase non-receptor type 22; assay: inhibition of lymphoid tyrosine phosphatase LYP – biochemical, pCAP fluorogenic substrate, fluorescence, set 3, SAR follow-up (AID 449727); format: functional
[5] = molecular target: T2, Tyrosine-protein phosphatase non-receptor type 7 (Homo sapiens, UniProt P35236); assay: inhibition of hematopoietic tyrosine phosphatase HePTP – biochemical, set 2, SAR follow-up (AID 449736); format: functional
T2 sequence (P35236 whole entry): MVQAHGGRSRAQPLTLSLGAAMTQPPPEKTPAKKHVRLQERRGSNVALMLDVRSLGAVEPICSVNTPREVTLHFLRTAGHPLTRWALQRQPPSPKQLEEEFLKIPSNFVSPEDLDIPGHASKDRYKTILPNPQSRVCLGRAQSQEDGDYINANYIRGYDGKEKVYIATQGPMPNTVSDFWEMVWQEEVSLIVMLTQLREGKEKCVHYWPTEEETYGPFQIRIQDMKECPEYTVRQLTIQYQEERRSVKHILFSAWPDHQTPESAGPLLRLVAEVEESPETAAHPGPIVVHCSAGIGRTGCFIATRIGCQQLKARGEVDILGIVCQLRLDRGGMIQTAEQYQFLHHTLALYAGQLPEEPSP

[6] = molecular target: T1, Tyrosine-protein phosphatase non-receptor type 22; assay: SAR LYP1 Fluorescent Assay using OMFP substrate for In Vitro dose response studies - Set 3. [Related pubchem assays (depositor defined):AID1779, AID1784, AID2140, AID2686]; format: functional
[7] = molecular target: T1, Tyrosine-protein phosphatase non-receptor type 22; format: functional
[8] = molecular target: T2, Tyrosine-protein phosphatase non-receptor type 7; format: functional
[9] = molecular target: T1, Tyrosine-protein phosphatase non-receptor type 22; format: functional; remark: listed apart in the source
[10] = Trypanosoma cruzi growth suppression in host cells – NIH3T3 host cells, beta-gal luminescence, confirmation (AID 2044); format: functional, cell-based;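 also: intracellular parasites grown in NIH/3T3 mouse fibroblasts as host cells; luminescent beta-galactosidase reporter signal from transgenic T. cruzi replicating inside host cells; inhibitors lower the luminescence signal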
[11] = NIH3T3 cell viability loss – ATP luminescence, mouse fibroblasts, counter-screen, dose response (AID 2010); format: functional, cell-based;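 also: cells exposed to compound for about 90 hours before reading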
Beta-galactosidase = Beta-galactosidase (Escherichia coli, UniProt Q8VNN2); format: functional
Beta-galactosidase, sequence (Q8VNN2 whole entry): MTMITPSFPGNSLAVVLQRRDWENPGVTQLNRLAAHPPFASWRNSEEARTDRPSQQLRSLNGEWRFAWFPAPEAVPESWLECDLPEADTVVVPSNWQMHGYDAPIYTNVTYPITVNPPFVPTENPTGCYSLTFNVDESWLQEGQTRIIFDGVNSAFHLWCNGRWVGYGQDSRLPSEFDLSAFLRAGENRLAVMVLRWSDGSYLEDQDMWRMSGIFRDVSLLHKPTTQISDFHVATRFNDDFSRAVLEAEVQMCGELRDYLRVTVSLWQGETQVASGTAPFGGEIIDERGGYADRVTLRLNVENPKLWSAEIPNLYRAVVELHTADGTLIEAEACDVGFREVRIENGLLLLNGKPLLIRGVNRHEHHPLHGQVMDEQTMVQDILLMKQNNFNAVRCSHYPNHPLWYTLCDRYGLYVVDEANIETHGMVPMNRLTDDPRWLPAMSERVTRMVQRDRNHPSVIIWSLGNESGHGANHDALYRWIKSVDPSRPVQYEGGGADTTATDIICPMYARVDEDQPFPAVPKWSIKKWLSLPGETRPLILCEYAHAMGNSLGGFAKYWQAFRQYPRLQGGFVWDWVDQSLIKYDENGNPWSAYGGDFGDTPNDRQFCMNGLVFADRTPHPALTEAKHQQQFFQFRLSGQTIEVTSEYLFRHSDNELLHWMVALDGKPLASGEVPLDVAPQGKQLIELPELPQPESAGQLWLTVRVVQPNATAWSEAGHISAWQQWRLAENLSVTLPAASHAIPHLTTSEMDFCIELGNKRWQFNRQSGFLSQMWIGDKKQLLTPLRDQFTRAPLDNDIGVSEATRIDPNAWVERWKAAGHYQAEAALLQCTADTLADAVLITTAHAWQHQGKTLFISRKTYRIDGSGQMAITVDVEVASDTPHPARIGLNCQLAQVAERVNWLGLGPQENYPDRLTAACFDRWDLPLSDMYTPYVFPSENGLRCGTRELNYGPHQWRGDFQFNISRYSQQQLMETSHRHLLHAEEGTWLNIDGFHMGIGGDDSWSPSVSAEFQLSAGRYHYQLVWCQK

Mu-type opioid receptor = Mu-type opioid receptor (Homo sapiens, UniProt P35372); assay: HTS Image-Based Screen for Agonists of the MOR Receptor. [Related pubchem assays (depositor defined):AID1777, AID1785, AID1786, AID2133]; format: functional;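 also: imaging of beta-arrestin GFP recruitment into spots after receptor activation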
Mu-type opioid receptor, sequence (P35372 whole entry): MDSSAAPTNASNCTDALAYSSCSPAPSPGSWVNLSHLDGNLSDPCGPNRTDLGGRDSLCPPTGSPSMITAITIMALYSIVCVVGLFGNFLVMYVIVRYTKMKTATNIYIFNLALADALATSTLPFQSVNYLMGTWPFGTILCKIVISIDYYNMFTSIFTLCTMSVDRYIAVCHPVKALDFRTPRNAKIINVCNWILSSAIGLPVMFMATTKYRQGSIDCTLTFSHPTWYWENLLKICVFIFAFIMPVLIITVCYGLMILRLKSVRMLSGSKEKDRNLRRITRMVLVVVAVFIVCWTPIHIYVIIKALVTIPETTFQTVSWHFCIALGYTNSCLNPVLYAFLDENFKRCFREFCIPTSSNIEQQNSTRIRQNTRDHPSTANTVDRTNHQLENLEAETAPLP

[12] = molecular target: T3, Kappa-type opioid receptor (Homo sapiens, UniProt P41145); format: functional
T3 sequence (P41145 whole entry): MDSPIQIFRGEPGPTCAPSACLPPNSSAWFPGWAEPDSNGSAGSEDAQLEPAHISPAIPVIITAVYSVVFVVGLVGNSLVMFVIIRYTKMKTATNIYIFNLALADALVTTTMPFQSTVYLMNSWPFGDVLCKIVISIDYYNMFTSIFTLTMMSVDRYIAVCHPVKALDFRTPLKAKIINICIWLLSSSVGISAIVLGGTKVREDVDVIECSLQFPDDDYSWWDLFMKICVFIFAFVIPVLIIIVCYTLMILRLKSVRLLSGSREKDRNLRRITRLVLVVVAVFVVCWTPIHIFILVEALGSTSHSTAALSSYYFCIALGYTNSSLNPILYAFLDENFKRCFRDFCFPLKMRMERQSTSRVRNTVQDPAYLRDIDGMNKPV

[13] = molecular target: T4, Delta-type opioid receptor (Homo sapiens, UniProt P41143); assay: HTS Image-Based Screen for Agonists of the DOR Receptor. [Related pubchem assays (depositor defined):AID1777, AID1786, AID2133]; format: functional
T4 sequence (P41143 whole entry): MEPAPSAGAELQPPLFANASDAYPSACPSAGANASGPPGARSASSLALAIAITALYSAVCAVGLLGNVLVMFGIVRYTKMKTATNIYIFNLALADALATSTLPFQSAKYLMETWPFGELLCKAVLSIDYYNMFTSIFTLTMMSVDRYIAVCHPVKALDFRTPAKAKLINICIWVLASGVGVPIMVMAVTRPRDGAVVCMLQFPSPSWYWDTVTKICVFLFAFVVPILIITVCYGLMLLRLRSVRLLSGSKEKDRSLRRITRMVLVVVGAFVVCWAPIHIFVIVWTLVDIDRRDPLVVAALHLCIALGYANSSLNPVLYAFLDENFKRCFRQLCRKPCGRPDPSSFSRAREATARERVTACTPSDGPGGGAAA

[14] = molecular target: T3, Kappa-type opioid receptor; format: functional; remark: listed apart in the source
[15] = molecular target: T4, Delta-type opioid receptor; assay: HTS Image-Based Screen for Antagonists of the DOR Receptor. [Related pubchem assays (depositor defined):AID1777, AID1785, AID1786, AID2133]; format: functional
[16] = molecular target: Intestinal-type alkaline phosphatase (Mus musculus, UniProt P24822); assay: PubChem AID 488874; format: functional
Intestinal-type alkaline phosphatase (Mus musculus, UniProt P24822), sequence (P24822 whole entry): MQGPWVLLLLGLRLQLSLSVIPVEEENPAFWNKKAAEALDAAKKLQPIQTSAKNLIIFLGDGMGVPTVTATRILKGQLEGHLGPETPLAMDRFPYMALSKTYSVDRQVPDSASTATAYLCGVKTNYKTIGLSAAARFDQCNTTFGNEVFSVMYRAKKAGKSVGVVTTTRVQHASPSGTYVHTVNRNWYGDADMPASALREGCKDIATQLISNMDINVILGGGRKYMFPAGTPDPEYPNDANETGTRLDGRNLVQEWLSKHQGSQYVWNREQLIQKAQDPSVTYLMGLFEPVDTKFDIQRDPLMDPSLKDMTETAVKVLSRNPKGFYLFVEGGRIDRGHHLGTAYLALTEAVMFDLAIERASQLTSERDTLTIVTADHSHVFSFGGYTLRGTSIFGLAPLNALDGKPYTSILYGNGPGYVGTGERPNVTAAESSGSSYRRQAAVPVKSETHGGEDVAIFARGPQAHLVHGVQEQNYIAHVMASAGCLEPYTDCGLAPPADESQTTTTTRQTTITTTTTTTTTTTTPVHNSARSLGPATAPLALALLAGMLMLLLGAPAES

[17] = molecular target: T5, Intestinal-type alkaline phosphatase (Homo sapiens, UniProt P09923); assay: activation of human intestinal alkaline phosphatase – biochemical, luminescent, uHTS hits, set 2, dose response (AID 488817); format: functional;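 also: potency of activators that raise enzyme activity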
T5 sequence (P09923 whole entry): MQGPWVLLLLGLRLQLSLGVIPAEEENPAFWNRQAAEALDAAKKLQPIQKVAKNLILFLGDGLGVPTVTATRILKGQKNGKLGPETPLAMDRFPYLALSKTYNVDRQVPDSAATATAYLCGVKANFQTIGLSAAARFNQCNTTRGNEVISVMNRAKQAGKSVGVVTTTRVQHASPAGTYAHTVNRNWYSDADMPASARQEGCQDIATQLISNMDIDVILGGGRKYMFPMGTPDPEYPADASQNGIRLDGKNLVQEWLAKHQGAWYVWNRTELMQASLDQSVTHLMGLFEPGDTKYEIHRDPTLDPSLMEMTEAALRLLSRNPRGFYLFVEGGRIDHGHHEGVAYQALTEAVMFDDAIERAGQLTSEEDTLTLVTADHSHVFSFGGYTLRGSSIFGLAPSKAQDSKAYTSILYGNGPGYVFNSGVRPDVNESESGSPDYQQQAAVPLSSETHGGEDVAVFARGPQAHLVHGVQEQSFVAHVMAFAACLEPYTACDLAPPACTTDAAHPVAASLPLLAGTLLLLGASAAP

[18] = molecular target: T6, Alkaline phosphatase, tissue-nonspecific isozyme (Homo sapiens, UniProt P05186); assay: activation of tissue-nonspecific alkaline phosphatase – biochemical, TNAP isozyme, human IAP uHTS hits, selectivity assay for human IAP activator project, dose response (AID 488886); format: functional;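 also: potency of compounds raising TNAP activity as a selectivity check on IAP activators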
T6 sequence (P05186 whole entry): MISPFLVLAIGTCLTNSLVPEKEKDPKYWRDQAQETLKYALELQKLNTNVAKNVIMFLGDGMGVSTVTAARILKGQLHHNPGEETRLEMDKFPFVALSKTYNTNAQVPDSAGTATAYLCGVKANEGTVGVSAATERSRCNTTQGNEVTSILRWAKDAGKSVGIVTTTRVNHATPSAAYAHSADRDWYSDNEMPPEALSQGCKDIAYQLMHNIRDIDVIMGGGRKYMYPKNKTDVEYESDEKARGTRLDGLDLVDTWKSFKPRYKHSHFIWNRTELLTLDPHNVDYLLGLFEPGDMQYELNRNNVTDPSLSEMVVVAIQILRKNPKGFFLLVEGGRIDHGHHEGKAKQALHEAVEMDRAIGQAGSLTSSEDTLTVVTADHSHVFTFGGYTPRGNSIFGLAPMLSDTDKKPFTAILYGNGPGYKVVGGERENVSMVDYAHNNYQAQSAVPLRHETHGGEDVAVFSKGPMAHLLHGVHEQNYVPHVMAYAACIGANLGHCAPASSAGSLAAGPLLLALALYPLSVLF

[19] = molecular target: T5, Intestinal-type alkaline phosphatase; assay: human intestinal alkaline phosphatase activators, dose response, biochemical, luminescence, uHTS hits (AID 463120); format: functional

IC50 [1]: > 100 µM (inactive)
IC50 [2]: > 100 µM (inactive)
IC50 [3]: 66.3 µM (active)
IC50 [4]: > 100 µM (inactive)
IC50 [5]: > 100 µM (inactive)
IC50 [6]: > 100 µM (inactive)
Structure (SMILES): O=C(O)COc1ccc(C=NNC(=O)c2ccccc2Br)cc1

Structure (SMILES): CCCCOc1ccc(CN2CCCCC2)cc1
IC50 [7]: > 79.4 µM (inactive)
IC50 [8]: > 79.4 µM (inactive)
IC50 [9]: > 79.4 µM (inactive)
EC50 [10]: 1.2 µM (active)
EC50 [11]: > 30 µM (not active)

EC50 (Beta-galactosidase): > 31.5 µM (inactive)
EC50 (Mu-type opioid receptor): > 32 µM (inactive)
IC50 [12]: > 32 µM
EC50 [13]: > 32 µM (inactive)
IC50 [14]: 7.92 µM (active)
IC50 [15]: > 32 µM (inactive)
Structure (SMILES): COc1ccc(-c2csc(Cc3nc(O)cs3)n2)cc1

IC50 [16]: > 100 µM (inactive)
EC50 [17]: 33 µM (active)
EC50 [18]: 34.9 µM (active)
EC50 [19]: 8.06 µM (active)
Structure (SMILES): CCC(C)(C)C1CCc2n[nH]c(C(=O)N/N=C(\C)c3ccco3)c2C1 (stereo unspecified)
